Laboratory results published in patent publication US20150071989A1, “LIPOSOMES FOR HEMATOLOGICAL TUMORS” (University of Tennessee Research Foundation, priority 2013, published 2015).
pIC50: −log10 of the molar value.

Experiments:
Jurkat cells = assay: MTT cell viability assay, in vitro cytotoxicity in CD22- Jurkat cells; assay type: cell-based; conditions: Homo sapiens
Protocol: FIG. 14A is a graph showing the in vitro cytotoxicity of targeted, drug-loaded liposomes (solid line, “CD22 Targeted NP”) and untargeted, drug-loaded liposomes (dotted line, “Untargeted NP”) in Jurkat cells after 24 hours. The Jurkat cells lack the cell surface antigen (CD22) to which the antibody of the targeted liposomes binds. For comparison, the in vitro cytotoxic effects of free (solution) drug (N-benzyladriamycin-14-valerate (AD198)) are also shown (dashed line, “Solution Drug”). Cytotoxicity is expressed as percentage (%) cell kill as measured via (3-(4,5-dimethylthiazol-2-yl)-2,5-diphenyltetrazolium bromide (MTT) cell viability assay. The data represents the average of three measurements; the error bars represent±standard deviation.
FIG. 15A is a graph showing the in vitro cytotoxicity of targeted, drug-loaded liposomes (solid line, “CD22 Targeted NP”) and untargeted, drug-loaded liposomes (dotted line, “Untargeted NP”) in Jurkat cells after 48 hours. […] Cytotoxicity is expressed as percentage (%) cell kill as measured via (3-(4,5-dimethylthiazol-2-yl)-2,5-diphenyltetrazolium bromide (MTT) assay. The data represents the average of three measurements; the error bars represent±standard deviation.
In vitro efficacy of the liposomes was also studied using the MTT assay to assess cell viability. […] IC50 concentrations were also calculated for the solution drug and the targeted liposome. […]

Daudi cells = assay: MTT cell viability assay, in vitro cytotoxicity in CD22+ Daudi cells; assay type: cell-based; conditions: Homo sapiens
Protocol: FIG. 14B is a graph showing the in vitro cytotoxicity of targeted, drug-loaded liposomes (solid line, “CD22 Targeted NP”) and untargeted, drug-loaded liposomes (dotted line, “Untargeted NP”) in Daudi cells after 24 hours. The Daudi cells have the cell surface antigen (CD22) to which the antibody of the targeted liposomes binds. For comparison, the in vitro cytotoxic effects of free (solution) drug (N-benzyladriamycin-14-valerate (AD198)) are also shown (dashed line, “Solution Drug”). Cytotoxicity is expressed as percentage (%) cell kill as measured via (3-(4,5-dimethylthiazol-2-yl)-2,5-diphenyltetrazolium bromide (MIT) cell viability assay. The data represents the average of three measurements; the error bars represent±standard deviation.
FIG. 15B is a graph showing the in vitro cytotoxicity of targeted, drug-loaded liposomes (solid line, “CD22 Targeted NP”) and untargeted, drug-loaded liposomes (dotted line, “Untargeted NP”) in Daudi cells after 48 hours. The Daudi cells have the cell surface antigen (CD22) to which the antibody of the targeted liposomes binds. […] Cytotoxicity is expressed as percentage (%) cell kill as measured via (3-(4,5-dimethylthiazol-2-yl)-2,5-diphenyltetrazolium bromide (MTT) cell viability assay. The data represents the average of three measurements; the error bars represent±standard deviation. […]

## CCCCC(=O)OCC(=O)[C@]1(O)Cc2c(O)c3c(c(O)c2[C@@H](O[C@H]2C[C@H](NCc4ccccc4)[C@H](O)[C@H](C)O2)C1)C(=O)c1c(OC)cccc1C3=O [AD198, N-benzyladriamycin-14-valerate]
Jurkat cells; Jurkat cells (CD22-), 24 hours
  pIC50: 5.98
Jurkat cells; Jurkat cells, 48 hours
  pIC50: 7.00
Daudi cells; Daudi cells (CD22+), 24 hours
  pIC50: 6.60
Daudi cells; Daudi cells, 48 hours
  pIC50: 7.00
